According to article PMC8364686, “Safety, tolerability, pharmacokinetics and pharmacodynamics of single oral doses of BI 187004, an inhibitor of 11beta-hydroxysteroid dehydrogenase-1, in healthy male volunteers with overweight or obesity” (Clinical Diabetes and Endocrinology, 2021):

Test: Plasma pharmacokinetics of BI 187004 after single oral doses (LC–MS/MS)
Conditions: male, human, plasma, po; for concentration at 36 h: planned time 36 h; for concentration at 48 h: planned time 48 h; for concentration at 72 h: planned time 72 h; for concentration at 96 h: planned time 96 h; for concentration at 0.5 h: planned time 0.5 h; for concentration at 1 h: planned time 1 h; for concentration at 1.5 h: planned time 1.5 h; for concentration at 2 h: planned time 2 h; for concentration at 2.5 h: planned time 2.5 h; for concentration at 3 h: planned time 3 h; for concentration at 4 h: planned time 4 h; for concentration at 5 h: planned time 5 h; for concentration at 6 h: planned time 6 h; for concentration at 8 h: planned time 8 h; for concentration at 10 h: planned time 10 h; for concentration at 12 h: planned time 12 h
[1] = 160 mg, BI 187004 plasma concentrations, 160 mg single oral, Max
[2] = 160 mg, BI 187004 plasma concentrations, 160 mg single oral, Mean
[3] = 160 mg, BI 187004 plasma concentrations, 160 mg single oral, Median
[4] = 160 mg, BI 187004 plasma concentrations, 160 mg single oral, Min
[5] = 160 mg, BI 187004 plasma concentrations, 160 mg single oral, gMean
[6] = 240 mg, BI 187004 plasma concentrations, Max, 240 mg single oral
[7] = 240 mg, BI 187004 plasma concentrations, Mean, 240 mg single oral
[8] = 240 mg, BI 187004 plasma concentrations, Median, 240 mg single oral
[9] = 240 mg, BI 187004 plasma concentrations, Min, 240 mg single oral
[10] = 240 mg, BI 187004 plasma concentrations, gMean, 240 mg single oral

Experimental: This was a randomized, double-blind, placebo-controlled, single rising dose study conducted at a single center in Germany. […] Follow-up on an ambulatory basis was performed between 11 and 15 days after study drug administration. […] At the time of use the oral solution for dosing was prepared using the PFOS and a co-supplied aqueous solvent containing HP-beta-cyclodextrin 100 mg/mL. The lowest dose level solutions were prepared by further dilution of the lower concentration solution with additional solvent.
For each accepted run, the acceptance criteria for the calibration standards and quality controls were met.

N#Cc1ccc2c(c1)[C@H]1CCCN(C(=O)c3ccc4[nH]cnc4c3)[C@H]1C2 [BI 187004]
concentration at 36 h [1]: 1390 nM | concentration at 36 h [2]: 716 nM | concentration at 36 h [3]: 604 nM | concentration at 36 h [4]: 476 nM | concentration at 36 h [5]: 669 nM | concentration at 48 h [1]: 1000 nM | concentration at 48 h [2]: 457 nM | concentration at 48 h [3]: 352 nM | concentration at 48 h [4]: 329 nM | concentration at 48 h [5]: 414 nM | concentration at 72 h [1]: 312 nM | concentration at 72 h [2]: 139 nM | concentration at 72 h [3]: 108 nM | concentration at 72 h [4]: 85.9 nM | concentration at 72 h [5]: 125 nM | concentration at 96 h [1]: 46.8 nM | concentration at 96 h [2]: 33.8 nM | concentration at 96 h [3]: 31.7 nM | concentration at 96 h [4]: 28 nM | concentration at 96 h [5]: 33.2 nM | concentration at 96 h (160 mg, BI 187004 plasma concentrations, 160 mg single oral, individual subjects): 30.2 nM | concentration at 24 h (160 mg, C24 gMean (%gCV), 160 mg single oral dose): 1630 nM | AUC(0-inf) (240 mg): 109 µM·h | AUC(0-t) (240 mg): 71.7 µM·h | Cmax (240 mg): 7120 nM | Tmax (240 mg): 1 h | Vd/F (240 mg): 124 L | half-life (240 mg): 13.4 h | concentration at 24 h (240 mg, BI 187004 plasma concentrations, 240 mg single oral, planned time 24 h, individual subjects): 2180 nM | concentration at 0.5 h [6]: 8440 nM | concentration at 1 h [6]: 10700 nM | concentration at 1.5 h [6]: 9030 nM | concentration at 2 h [6]: 9220 nM | concentration at 2.5 h [6]: 8510 nM | concentration at 3 h [6]: 6980 nM | concentration at 4 h [6]: 8420 nM | concentration at 5 h [6]: 6780 nM | concentration at 6 h [6]: 6370 nM | concentration at 8 h [6]: 5380 nM | concentration at 10 h [6]: 5800 nM | concentration at 12 h [6]: 3900 nM | concentration at 24 h (240 mg, BI 187004 plasma concentrations, Max, 240 mg single oral, planned time 24 h): 2630 nM | concentration at 36 h [6]: 1340 nM | concentration at 48 h [6]: 794 nM | concentration at 72 h [6]: 323 nM | concentration at 96 h [6]: 181 nM | concentration at 0.5 h [7]: 5210 nM | concentration at 1 h [7]: 7490 nM | concentration at 1.5 h [7]: 6420 nM | concentration at 2 h [7]: 6260 nM | concentration at 2.5 h [7]: 6300 nM | concentration at 3 h [7]: 5150 nM | concentration at 4 h [7]: 5510 nM | concentration at 5 h [7]: 4780 nM | concentration at 6 h [7]: 4330 nM | concentration at 8 h [7]: 3850 nM | concentration at 10 h [7]: 3450 nM | concentration at 12 h [7]: 2590 nM | concentration at 24 h (240 mg, BI 187004 plasma concentrations, Mean, 240 mg single oral, planned time 24 h): 2170 nM | concentration at 36 h [7]: 926 nM | concentration at 48 h [7]: 508 nM | concentration at 72 h [7]: 157 nM | concentration at 96 h [7]: 63.9 nM | concentration at 0.5 h [8]: 5530 nM | concentration at 1 h [8]: 8430 nM | concentration at 1.5 h [8]: 6890 nM | concentration at 2 h [8]: 6780 nM | concentration at 2.5 h [8]: 7270 nM | concentration at 3 h [8]: 5840 nM | concentration at 4 h [8]: 5680 nM | concentration at 5 h [8]: 5430 nM | concentration at 6 h [8]: 5270 nM | concentration at 8 h [8]: 4370 nM | concentration at 10 h [8]: 3700 nM | concentration at 12 h [8]: 2890 nM | concentration at 24 h (240 mg, BI 187004 plasma concentrations, Median, 240 mg single oral, planned time 24 h): 2320 nM | concentration at 36 h [8]: 887 nM | concentration at 48 h [8]: 461 nM | concentration at 72 h [8]: 98.9 nM | concentration at 96 h [8]: 36.4 nM | concentration at 0.5 h [9]: 130 nM | concentration at 1 h [9]: 440 nM | concentration at 1.5 h [9]: 811 nM | concentration at 2 h [9]: 543 nM | concentration at 2.5 h [9]: 605 nM | concentration at 3 h [9]: 388 nM | concentration at 4 h [9]: 575 nM | concentration at 5 h [9]: 494 nM | concentration at 6 h [9]: 452 nM | concentration at 8 h [9]: 181 nM | concentration at 10 h [9]: 313 nM | concentration at 12 h [9]: 258 nM | concentration at 24 h (240 mg, BI 187004 plasma concentrations, Min, 240 mg single oral, planned time 24 h): 1530 nM | concentration at 36 h [9]: 567 nM | concentration at 48 h [9]: 255 nM | concentration at 72 h [9]: 54.1 nM | concentration at 96 h [9]: 15.8 nM | concentration at 0.5 h [10]: 3180 nM | concentration at 1 h [10]: 5340 nM | concentration at 1.5 h [10]: 5150 nM | concentration at 2 h [10]: 4710 nM | concentration at 2.5 h [10]: 4840 nM | concentration at 3 h [10]: 3840 nM | concentration at 4 h [10]: 4280 nM | concentration at 5 h [10]: 3700 nM
